Test results taken from patent publication US7179495B1 (Universitaetsklinikum Freiburg, priority 1998, dated 2007).

Tests used:
[1] = test system: epidermal cells (EC) and T cells (TC); assay: MECLR in vitro, EC or TC preincubated with hyperforin; conditions: FIG. 9
Description: The roof of the blister was dissected out under sterile conditions using a scalpel and a suspension of epidermal cells (EC) was prepared by treating with trypsin. […] After that, the cells were washed and 50,000 EC were cocultured for 6 days (37° C., 5% CO2) with 150,000 TC (T cells) in 1640 RPMI containing 10% foetal calf serum (FCS) containing 1% penicillin-streptomycin in 96-well flat-bottomed microtitre plates (Greiner). 1 μCurie of ^3H-thymidine (Amersham) was then added per well and, after 18 h, the incorporated radioactivity was measured in a scintillation counter (Canberra Packard). The radioactivity which is measured is proportional to the replication of the DNA in the cells.

[2] = test system: Jurkat (leukaemia); assay: apoptotic DNA fragmentation by DNA gel electrophoresis; format: cell-based, human
Description: The DNA fragmentation was determined by means of DNA gel electrophoresis. Jurkat (leukaemia) was used as the tumour cell line.
Apoptotic DNA fragments were isolated by means of lysis with NP 40. The cells were washed and pelleted after 4 hours or after 24 hours, respectively. The cell pellet was incubated for 10 sec. with lysis buffer (1% NP 40, Sigma; 20 mM EDTA, Sigma; 50 mM Tris-HCl, Sigma). the lysates were mixed with 1% SDS (Sigma), incubated at 56° C. for 2 h with RNase (5 μg/μl) (Boehringer), and digested with proteinase K (Sigma) (2.5 μg/μl) for 2 h at 37° C. After 10 M ammonium acetate had been added, the DNA was precipitated with 100% ethanol at −20° C. and analysed by means of gel electrophoresis on 1% agarose gels.

[3] = test system: HaCaT cells; assay: proliferation of keratinocytes, 3H-thymidine incorporation; format: cell-based, human
[4] = test system: T cells; assay: proliferation of T cells; format: cell-based
[5] = test system: T cells; assay: induction of apoptosis in T cells; format: cell-based
[6] = test system: keratinocytes (HaCaT); assay: induction of apoptosis in keratinocytes; format: cell-based

SMILES: CC(C)=CCC[C@]1(C)[C@@H](CC=C(C)C)CC2(CC=C(C)C)C(=O)C(CC=C(C)C)=C(O)C1(C(=O)C(C)C)C2=O (stereo partly shown) [hyperforin]
- proliferation in MECLR ([1]; EC incubated 24 h with 24 μg of hyperforin/ml): significantly inhibits proliferation
- proliferation in MECLR ([1]; TC incubated 24 h with 24 μg of hyperforin/ml): significantly inhibits proliferation
- apoptotic DNA fragmentation ([2]; 40 μM, 4 hours): ++
- apoptotic DNA fragmentation ([2]; 40 μM, 24 hours): ++
- speed of apoptosis induction compared with taxol ([2]; hyperforin 40 μM vs taxol 10 μM, fully developed after only 4 hours): induces apoptosis in tumour cells more rapidly than does taxol
- concentration from which a proliferation-inhibiting effect is seen ([3]; human keratinocytes): ≥ 100 ng/mL
- proliferation of HaCaT cells ([3]; hyperforin 100 μg/ml, 24 h, FIG. 6): virtually completely inhibited

SMILES: Cc1cc(O)c2c(=O)c3c(O)cc(O)c4c5c(O)cc(O)c6c(=O)c7c(O)cc(C)c8c1c2c(c34)c(c78)c65 [hypericin]
- effect on proliferation of T cells [4]: proliferation-inhibiting effect
- induction of apoptosis [5]: can induce apoptasis
- induction of apoptosis [6]: can induce apoptasis
- effect on proliferation of keratinocytes (HaCaT) [3]: proliferation-inhibiting effect

SMILES: CC(=O)O[C@H]1C(=O)[C@@]2(C)[C@H]([C@H](OC(=O)c3ccccc3)[C@]3(O)C[C@H](OC(=O)[C@H](O)[C@@H](NC(=O)c4ccccc4)c4ccccc4)C(C)=C1C3(C)C)[C@]1(OC(C)=O)CO[C@@H]1C[C@@H]2O [taxol, reference compound]
- apoptotic DNA fragmentation ([2]; 10 μM, 4 hours): +
- apoptotic DNA fragmentation ([2]; 10 μM, 24 hours): ++
